Results reported in US20170275650A1, “ENDOSOMAL ESCAPE DOMAINS FOR […] OF MACR[…] CELLS” (priority 2014, published 2017).

Experiments:
[1] = tested on: GFPβ1-10 expressing H1299c#G3 cells; experiment: split GFP fluorescence complementation transduction assay (FACS); format: cell-based, human; settings: dose-dependent comparison, up to 60 μM, FACS (FIG. 4, 5)
Procedure: (§1) Peptide transduction. All transduction experiments were performed in 48-well plates. An optimized protocol was established. First, 15,000 or 20,000 cells were plated in each well. Next day, the indicated peptides were pipetted into eppendorf tubes. Transduction buffer (60% OptiMEM and 40% PBS) was added to peptide (100 μl total volume), directly mixed by pipetting up and down five times and then immediately transferred to cells. All pipetting steps were done in a laminar flow cell culture hood and standardized to 15 min for each plate before transferring the plate of cells to a 37° C. CO2 incubator for 1.5 h before addition of 500 μl DMEM supplemented with 10% FBS and another incubation round for 3.5 h in the 37° C. CO2 incubator (alternatively cells were incubated 2 h with peptides and another 4 h with DMEM, 10% FBS (FIG. 8b, c, d). For the transduction time-course, cells were incubated with peptides in transduction buffer until indicated time-points. All cells were trypzinized and collected in 250 μl OptiMEM without phenol red and analyzed by FACS (GFP, FSC/SSC). 4000 viable cells were analyzed per sample. Data is presented as fold change in fluorescence compared to non-treated cells.
To address these problems, the disclosure provides a self-assembling, bimolecular or split GFP fluorescence complementation system that was originally designed to tag and monitor proteins. GFP is composed of 11 β-strands that form a barrel structure allowing for peptidyl backbone cyclization and formation of a fluorescent chromophore. […] Importantly, co-incubation of GFPβ1-10 with the GFPβ11 peptide in trans efficiently reconstitutes GFP fluorescent chromophore bond and GFP fluorescence (FIG. 1a). To study PTD-mediated delivery, cell lines were generated that constitutively expressed the non-fluorescent GFPβ1-10 fragment and treated them in trans with a GFPβ11-PTD/CPP peptide to restore GFP fluorescence.
Cell clones of various human cell lines constitutively expressing the non-fluorescent large GFPβ1-10 fragment, including H1299 non-small cell lung carcinoma, HaCaT immortalized keratinocytes, and MDA-MB-231 and MCF7 breast carcinomas, and assayed for reconstituted intracellular GFP fluorescence after treatment with transducible GFPβ11-PTD/CPP peptides by FACS (FIG. 1a). Starting with human H1299 cells, known to be a good model for PTD/CPP-mediated uptake, two GFPβ1-10 expressing clones were generated (c#G3 and c#G4) (FIG. 8a). GFPβ1-10 expressing H1299c#G3 cells were treated for 1.5 h with increasing amounts of transducible GFPβ11-TAT peptide (0-60 μM), followed by an additional 3.5 h in DMEM supplemented with 10% FBS. At 5 h post-addition of GFPβ11-TAT peptide, cells were trypsinized and live cell assayed by FACS.

[2] = tested on: GFPβ1-10 expressing H1299c#G3 cells; format: cell-based, human; settings: FACS FSC/SSC and viable cell number relative to untreated control cells
Source text: Cell morphology and cell viability.

[3] = tested on: GFPβ1-10 expressing HaCatc#G7 cells; experiment: split GFP fluorescence complementation transduction assay (FACS); format: cell-based, human; settings: increasing amounts of peptide (FIG. 6)
Procedure: (§2) Cell culture, transfections and immunoblots. H1299, MCF7, MDA-MB-231 and HaCat cells were maintained in DMEM supplemented with 10% FBS, 100 U/ml penicillin, and 100 U/ml streptomycin. H1299c#G3, H1299c#G4, MCF7c#G7, MDA-MB-231c#G3 and HaCaTc#G7 cells were generated by transfecting cells with pCMV-mGFPβ1-10 and subsequently grown under hygromycin selection. Hygromycin resistant cells were then treated with GFPβ11-TAT and directly after, individual, transiently fluorescent clonal cells were isolated by FACS sorting. Clones were expanded and tested for stable GFPβ1-10 expression. H1299c#G3, H1299c#G4, MCF7c#G7, MDA-MB-231c#G3 and HaCaTc#G7 cells were maintained in DMEM supplemented with 10% FBS, 100 U/ml penicillin, 100 U/ml streptomycin and 80 or 100 ug/ml hygromycin. Transient transfections of siRNA or plasmid DNA were performed using Lipofectamine 2000 according to standard protocol. Immunblots were performed using 10% SDS-PAGE, semi-dry transfer (BioRad) and developed on ChemiDoc Imager (BioRad).
as §1, with “CO2 incubator for 1.5 h before addition of 500 μl DMEM supplemented with 10% FBS and another incubation round for 3.5 h in the 37° C.” left out

[4] = tested on: GFPβ1-10 expressing MCF7c#G7 cells; experiment: as above; format: cell-based, human; settings: increasing amounts of peptide (FIG. 6)
Procedure: as §2
as §1, with “CO2 incubator for 1.5 h before addition of 500 μl DMEM supplemented with 10% FBS and another incubation round for 3.5 h in the 37° C.” left out

[5] = tested on: GFPβ1-10 expressing MDA-MB-231c#G3 cells; experiment: as above; format: cell-based, human; settings: increasing amounts of peptide (FIG. 6)
Procedure: as §2
as §1, with “CO2 incubator for 1.5 h before addition of 500 μl DMEM supplemented with 10% FBS and another incubation round for 3.5 h in the 37° C.” left out

[6] = tested on: GFPβ1-10 expressing MCF7c#G7 cells; settings: increasing amounts of peptide (FIG. 6)
Procedure: (§3) Cell morphology and cell viability. Cell morphology was determined by FACS analysis of FSC and SSC. Gates were set manually for viable cells using untreated control cells as reference and the fraction of viable cells compared to non-viable cells was determined for each sample. Data are presented as the relative difference compared to non-treated control cells. Viable cells per sample were determined by measuring number of viable cells that were analyzed per second by FACS. Gates for viable cells were set manually using untreated control cells as reference. Data are presented as the relative difference compared to untreated control cells.

[7] = tested on: GFPβ1-10 expressing MDA-MB-231c#G3 cells; settings: increasing amounts of peptide (FIG. 6)
Procedure: as §3

[8] = tested on: GFPβ1-10 expressing HaCatc#G7 cells; settings: increasing amounts of peptide (FIG. 6)
Procedure: as §3

## RDHMVLHEYVNAAGIT-GGSGGC-(S-S)-CGG-RKKRRQRRR-(PEG)6-GFWFG (disulfide bond, (PEG)6-GFWFG) [GFPβ11-(S-S)-TAT-P6-GFWFG]
[1]
  GFP fluorescence / transduction compared to parental GFPβ11-(S-S)-TAT: four-fold increase
[2]
  cytotoxicity / morphological changes: absence of any detectable cytotoxicity
[3]
  GFP complementation compared to parental GFPβ11-(S-S)-TAT control peptide: significantly enhanced GFP complementation
[4]
  GFP complementation compared to parental GFPβ11-(S-S)-TAT control peptide: significantly enhanced GFP complementation
[5]
  GFP complementation compared to parental GFPβ11-(S-S)-TAT control peptide: significantly enhanced GFP complementation
[6]
  cytotoxicity: Low to no cytotoxicity
[7]
  cytotoxicity: Low to no cytotoxicity
[8]
  cytotoxicity: Low to no cytotoxicity
